Marks after values point to notes of the source that are not given here.
Legend:
[1] = tested on: bone marrow cells of Paget's disease of bone patients; assay: Osteoclast formation induced by 1α,25-dihydroxyvitamin D3 in bone marrow cultures from Paget's disease of bone patients; format: cell-based, human; conditions: for osteoclast formation (average number of cells ± S.D.): Paget's marrow
Source text: (§1) Mononuclear cells were fractionated from bone marrow cells of healthy normal persons according to a method of Kurihara et al. (Endocrinology, vol. 126, 2733-2741 (1990)). Briefly, bone marrow cells were obtained from normal persons, a mononuclear cell fraction was collected by Hypaque-Ficoll density gradient centrifugation, the cell fraction was washed with α-Minimal Essential Media (α-MEM) 3 times, and the cells dispersed in α-MEM containing 10% fetal bovine serum. This mononuclear cell suspension was seeded in 100-mm tissue culture plates, the culture plate was kept for 90 minutes at 37° C. in a 4% CO2-air atmosphere, and the non-adherent cells were collected. The non-adherent mononuclear cells were dispersed into α-MEM culture medium containing 20% horse serum at 10^6 cells/ml, the cell suspension was seeded into 96-well multi plates at 100 μl/well.
The capacity of the compound 11 (23S isomer) to inhibit osteoclast formation induced by 1α,25-dihydroxyvitamin D3 was evaluated as follows: Various concentrations of 1α,25-dihydroxyvitamin D3, various concentrations of compound 11 ([…]) solution were added to each well. The culture medium was replaced twice weekly and the cultures continued for 3 weeks at 37° C. in an atmosphere of 4% CO2-air. Osteoclasts that formed were identified by their capacity to bind the 23C6 antibody. The nuclei were counter stained with methyl green. Cells that reacted with the 23C6 antibody and had 3 or more nuclei were scored as osteoclasts.
Bone marrow cells were obtained from involved bones of patients with Paget's disease of bone and processed and cultured as described above for normal bone cells. The cultures were treated in an identical manner with 1α,25-dihydroxyvitamin D3 and/or compound 11 (23S isomer) as described in Example 1.
Bone marrow cultures were performed as described in Example 1, with the exception that different types of vitamin D antagonists were added to at varying concentrations to bone marrow cultures stimulated with 1α,25-dihydroxyvitamin D3. The bone marrow cells were taken from involved bones of patients with Paget's disease of bone and the cultures were performed as described in Example 2. There are two diastereoisomers, based on the asymmetric carbon at the 23 position, in compounds 13 and 16. The isomer having the shorter retention time on reverse phase HPLC analysis was the more polar isomer and the isomer having the longer retention time was the less polar isomer.

vitamin D deficient rats = assay: Bone resorption (serum calcium) induced by 1α,25-dihydroxyvitamin D3 in vitamin D deficient rats; format: in vivo, Wistar rats
Experimental: Four-week-old male Wistar rats purchased from Japan SLC (Shizuoka, in Japan) were used. The animals were kept in wire-net cages (three animals in a cage) and raised for 7 weeks with free access to a vitamin D-deficient diet (Ca, 0.0036%; P, 0.3%; Harlan Taklad Research Diet, Madison, Wis., U.S.A.) and drinking water (well water treated with hypochlorite of […]±0.2 ppm). Temperature was kept at 23±1° C. and the humidity at 55±10%. Five animals were used for each experimental group. The control animals received intravenously administered solvent (5% ethanol-0.1% Triton X-100-physiological saline solution), and the experimental animals were intravenously administered 1α,25-dihydroxyvitamin D3 at a dose of 0.25 μg/kg. For animals receiving vitamin D derivatives, compound 11 (23S isomer) was administered intravenously at a dose of 2 μg/kg, 10 μg/kg or 50 μg/kg, or the compound 11 (23S isomer) with or without 1α,25-dihydroxyvitamin D3 at a dose of 0.25 μg/kg. The volume was 2 ml/kg for each animal. 24 hours after administration, a blood sample was taken out from abdominal descending aorta under ether anesthesia, the serum was collected according to conventional methods, and the calcium concentration in the serum was measured. The calcium concentrations were measured according to OCPC-method (Am. J. Clin. Pathol., vol. 45, 290-296 (1966)) with an autoanalyzer (type 7070, manufactured by Hitachi Seisakusho).

[2] = tested on: bone marrow cells of normal persons; assay: Osteoclast formation induced by 1α,25-dihydroxyvitamin D3 in normal human bone marrow cultures; format: cell-based; conditions: for osteoclast formation (average number of cells ± S.D.): normal marrow
Source text: as §1, with “μl/well. The capacity of the compound 11 (23S isomer) to inhibit osteoclast formation induced by 1α,25-dihydroxyvitamin D3 was evaluated as follows: Various concentrations of 1α,25-dihydroxyvitamin D3, various concentrations of compound 11 (23S isomer) or a combination of 10^−8 M 1α,25-dihydroxyvitamin D3 solution and various concentrations of compound 11 (23S isomer) solution were added to each well. The culture medium was replaced twice weekly and the cultures continued for 3 weeks at 37° C. in an atmosphere of 4% CO2-air. Osteoclasts that formed were identified by their capacity to bind the 23C6 antibody. The nuclei were counter stained with methyl green. Cells that reacted with the 23C6 antibody and had 3 or more nuclei were scored as osteoclasts.” for “μl/well.”

Question: `C=C1CC(CC(C)C2CCC3C(=CC=C4CC(O)CC(O)C4=C)CCCC32C)OC1=O` [compound 11 (23S isomer), (23S)-25-Dehydro-1α,25-Dihydroxyvitamin D3-26, 23-Lactone] was tested. Which “osteoclast formation (average number of cells ± S.D.)” value ([1]; 10^−10 M 1α,25-dihydroxyvitamin D3 + compound 10^−6 M) did it give?
Answer: 1 ± 1 cells

Question: What about the “osteoclast formation (average number of cells ± S.D.)” value ([1]; 10^−10 M 1α,25-dihydroxyvitamin D3 + compound 10^−7 M, listed as compound 11 (235 isomer)) of the same compound?
Answer: 14 ± 1 cells

Question: And the “osteoclast formation (average number of cells ± S.D.)” value ([1]; 10^−10 M 1α,25-dihydroxyvitamin D3 + compound 10^−8 M, listed as compound 11 (235 isomer))?
Answer: 63 ± 5 cells

Question: And the “osteoclast formation (average number of cells ± S.D.)” value ([1]; 10^−10 M 1α,25-dihydroxyvitamin D3 + compound 10^−9 M)?
Answer: 125 ± 5 cells

Question: And the “osteoclast formation (average number of cells ± S.D.)” value ([1]; 10^−10 M 1α,25-dihydroxyvitamin D3 + compound 10^−10 M)?
Answer: 155 ± 6 cells

Question: What about the “osteoclast formation (average number of cells ± S.D.)” value ([1]; 10^−10 M 1α,25-dihydroxyvitamin D3 + compound 10^−11 M) of the same compound?
Answer: 170 ± 13 cells

Question: And the “induction of osteoclast formation by the compound alone (in words)” value ([1]; Paget's marrow cultures)?
Answer: did not induce osteoclast formation

Question: And the “osteoclast formation (average number of cells ± S.D.)” value ([1]; compound alone, 10^−6 M)?
Answer: 1 ± 1 cells

Question: What about the “osteoclast formation (average number of cells ± S.D.)” value ([1]; compound alone, 10^−7 M) of the same compound?
Answer: 8 ± 2 cells

Question: And the “osteoclast formation (average number of cells ± S.D.)” value ([1]; compound alone, 10^−8 M)?
Answer: 9 ± 3 cells

Question: What about the “osteoclast formation (average number of cells ± S.D.)” value ([1]; compound alone, 10^−9 M) of the same compound?
Answer: 16 ± 2 cells

Question: And the “osteoclast formation (average number of cells ± S.D.)” value ([1]; compound alone, 10^−10 M)?
Answer: 20 ± 4 cells

Question: What about the “osteoclast formation (average number of cells ± S.D.)” value ([1]; compound alone, 10^−11 M) of the same compound?
Answer: 29 ± 5 cells

Question: And the “effect on basal osteoclast formation (in words)” value ([1]; compound alone, Paget's marrow cultures)?
Answer: inhibited basal osteoclast formation

Question: And the “serum Ca concentration” value (vitamin D deficient rats; 0.25 μg/kg 1α,25-dihydroxyvitamin D3 + compound 2 μg/kg intravenously, 24 hours)?
Answer: 5.31 ± 0.22 mg/100 ml serum

Question: And the “serum Ca concentration” value (vitamin D deficient rats; 0.25 μg/kg 1α,25-dihydroxyvitamin D3 + compound 10 μg/kg intravenously, 24 hours)?
Answer: 4.97 ± 0.18^a mg/100 ml serum

Question: And the “serum Ca concentration” value (vitamin D deficient rats; 0.25 μg/kg 1α,25-dihydroxyvitamin D3 + compound 50 μg/kg intravenously, 24 hours)?
Answer: 4.72 ± 0.21^b mg/100 ml serum

Question: And the “bone resorption induced by 1α,25-dihydroxyvitamin D3 (in words)” value (vitamin D deficient rats; 0.25 μg/kg 1α,25-dihydroxyvitamin D3 simultaneously with 2, 10 or 50 μg/kg compound)?
Answer: suppressed

Question: What about the “serum Ca concentration” value (vitamin D deficient rats; compound alone, 2 μg/kg intravenously, 24 hours after administration) of the same compound?
Answer: 4.61 ± 0.12 mg/100 ml serum

Question: What about the “serum Ca concentration” value (vitamin D deficient rats; compound alone, 10 μg/kg intravenously, 24 hours after administration) of the same compound?
Answer: 4.67 ± 0.11 mg/100 ml serum

Question: And the “serum Ca concentration” value (vitamin D deficient rats; compound alone, 50 μg/kg intravenously, 24 hours after administration)?
Answer: 4.65 ± 0.18 mg/100 ml serum

Question: What about the “serum calcium concentration after compound alone (in words)” value (vitamin D deficient rats; even at a dose of 50 μg/kg, 24 hours after administration) of the same compound?
Answer: increased serum calcium concentrations were not observed

Question: And the “osteoclast formation (average number of cells ± S.D.)” value ([2]; 10^−8 M 1α,25-dihydroxyvitamin D3 + compound 10^−6 M)?
Answer: 20 ± 7 cells

Question: And the “osteoclast formation (average number of cells ± S.D.)” value ([2]; 10^−8 M 1α,25-dihydroxyvitamin D3 + compound 10^−7 M)?
Answer: 33 ± 16 cells

Question: What about the “osteoclast formation (average number of cells ± S.D.)” value ([2]; 10^−8 M 1α,25-dihydroxyvitamin D3 + compound 10^−8 M) of the same compound?
Answer: 44 ± 8 cells

Question: What about the “osteoclast formation (average number of cells ± S.D.)” value ([2]; 10^−8 M 1α,25-dihydroxyvitamin D3 + compound 10^−9 M) of the same compound?
Answer: 55 ± 12 cells

Question: What about the “osteoclast formation (average number of cells ± S.D.)” value ([2]; 10^−8 M 1α,25-dihydroxyvitamin D3 + compound 10^−10 M) of the same compound?
Answer: 80 ± 5 cells

Question: What about the “osteoclast formation (average number of cells ± S.D.)” value ([2]; 10^−8 M 1α,25-dihydroxyvitamin D3 + compound 10^−11 M) of the same compound?
Answer: 85 ± 8 cells

Question: And the “osteoclast formation (average number of cells ± S.D.)” value ([2]; compound alone, 10^−6 M, 3 weeks)?
Answer: 0 ± 0 cells

Question: What about the “osteoclast formation (average number of cells ± S.D.)” value ([2]; compound alone, 10^−7 M, 3 weeks) of the same compound?
Answer: 0 ± 1 cells

Question: And the “osteoclast formation (average number of cells ± S.D.)” value ([2]; compound alone, 10^−8 M, 3 weeks)?
Answer: 3 ± 2 cells

Question: What about the “osteoclast formation (average number of cells ± S.D.)” value ([2]; compound alone, 10^−9 M, 3 weeks) of the same compound?
Answer: 5 ± 1 cells

Question: What about the “osteoclast formation (average number of cells ± S.D.)” value ([2]; compound alone, 10^−10 M, 3 weeks) of the same compound?
Answer: 9 ± 5 cells

Question: What about the “osteoclast formation (average number of cells ± S.D.)” value ([2]; compound alone, 10^−11 M, 3 weeks) of the same compound?
Answer: 17 ± 4 cells

Question: What about the “induction of osteoclast formation by the compound alone (in words)” value ([2]; normal marrow cultures) of the same compound?
Answer: did not induce osteoclast formation

Source: patent US20040019024A1, “Use of vitamin d derivatives as bone resorption inhibitors” (priority 2000, published 2004)
